Measured values published in US9493464B2, “Wee1 degradation inhibitors” (The Scripps Research Institute, priority 2012, dated 2016).
Where “and” joins values, the source holds several entries; their conditions need not be identical. Equal entries are not always repeated. Entries after “also recorded” stand apart in the source; their conditions may differ. Where two headings read alike, the source gives them in different places.

Legend:
K328M-Wee1-luciferase = experiment: Wee1-luciferase assay (stabilization of K328M-Wee1-luciferase); assay type: cell-based; conditions: for EC50: read-out: EC50 for stabilization of K328M-Wee1-luciferase
Source text: Steady-state level of K328M-Wee1-Luciferase (K328M-Wee1-Luc) was divided by Luciferase level (Luc) and plotted.
Similar assays have previously been described; PubChem AID 1807.

FLT3 = target: T1, FLT3 (Homo sapiens, UniProt P36888); experiment: In vitro kinase assay, FLT3 (Reaction Biology Corporation); assay type: biochemical; conditions: 10 μM ATP; read-out: FLT3 IC50
T1 construct: Reaction Biology Corporation (contract assay)
T1 sequence (P36888 27-993): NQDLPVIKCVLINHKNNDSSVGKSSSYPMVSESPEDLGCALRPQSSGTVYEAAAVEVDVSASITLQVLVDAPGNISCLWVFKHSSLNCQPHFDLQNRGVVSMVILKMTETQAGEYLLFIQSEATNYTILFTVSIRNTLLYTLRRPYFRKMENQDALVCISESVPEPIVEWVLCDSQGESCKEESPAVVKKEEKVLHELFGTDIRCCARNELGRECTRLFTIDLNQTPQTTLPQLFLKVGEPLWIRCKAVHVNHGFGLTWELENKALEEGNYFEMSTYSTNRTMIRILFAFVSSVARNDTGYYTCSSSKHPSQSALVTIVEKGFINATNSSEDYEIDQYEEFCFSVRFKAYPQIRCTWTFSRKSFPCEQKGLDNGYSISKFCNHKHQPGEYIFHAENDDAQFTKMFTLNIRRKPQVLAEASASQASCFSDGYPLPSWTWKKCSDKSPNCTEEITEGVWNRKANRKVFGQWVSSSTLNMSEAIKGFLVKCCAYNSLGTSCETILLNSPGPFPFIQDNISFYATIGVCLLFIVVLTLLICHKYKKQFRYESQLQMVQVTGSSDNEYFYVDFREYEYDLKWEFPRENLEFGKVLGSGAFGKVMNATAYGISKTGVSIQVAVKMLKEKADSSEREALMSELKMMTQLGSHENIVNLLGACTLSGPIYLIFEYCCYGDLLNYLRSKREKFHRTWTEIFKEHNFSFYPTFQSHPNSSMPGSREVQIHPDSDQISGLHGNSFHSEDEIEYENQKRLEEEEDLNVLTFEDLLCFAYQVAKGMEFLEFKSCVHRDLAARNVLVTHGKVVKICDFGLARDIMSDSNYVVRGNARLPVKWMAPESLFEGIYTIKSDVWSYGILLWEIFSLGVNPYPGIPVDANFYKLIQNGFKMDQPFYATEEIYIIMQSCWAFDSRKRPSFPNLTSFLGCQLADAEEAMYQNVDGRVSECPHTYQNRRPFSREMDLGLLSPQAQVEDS
Description: Compounds were tested in 10-dose IC50 mode with 3-fold serial dilution starting at 50 μM. […] Reactions were carried out at 10 μM ATP. Average and standard deviations of reactions carried out in triplicate are shown.
In vitro kinase assay to detect CK1 or FLT3 activity: CK1 and FLT3 assays as well as complete kinase profile of 296 kinases was performed by Reaction Biology Corporation. For FLT3 20 μM final Abltide was used, sequence: [[…]]. For CK1 (all isoforms) 20 μM CK1 tide was used, sequence: [KRRRAL[pS]VASLPGL] in a standard kinase assay with ^32P-ATP and purified kinase. Incorporation of ^32P-ATP into the peptide was measured after a filter-binding assay. In-house CK1d inhibition assays were performed using a standard homogenous time-resolved fluorescence resonance energy transfer (TR-FRET) format in 50 mM Hepes, pH 7.0, 2.5 mM MgCl2, 0.1 mg/ml bovine serum albumin, 1 mM DL-dithiothreitol, 0.01% Triton X-100 (all from Sigma-Aldrich). Briefly, the CK1δ substrate (DEKTDDE, containing CK1 consensus sequence; 4 μL of a 500 nM stock solution) is labeled with a small Ulight acceptor dye (PerkinElmer). In the presence of 10 μL of 10 nM CK1δ, the Ulight peptide is phosphorylated at a single amino acid that is specifically recognized by a europium chelate (Eu)-labeled phosphospecific antibody. Assays were performed in the presence of 2 μL of compound at different (measured) concentrations, and reactions were stopped by adding 10 μL of 4 nM Eu-anti-p-Topo-IIa (PerkinElmer) in Lance Detection Buffer (Perkin Elmer). Upon excitation of the Eu-labeled antibody, energy is transferred to the acceptor dye resulting in the emission of detected light at 665 nm.

HeLa cells [1] = experiment: Cell viability, ATP content (Cell-Titer Glo); assay type: cell-based; conditions: 24 hours, result in words
Source text: Error bars represent the standard deviation of three separate experiments.

HeLa cells [2] = experiment: PI-FACS cell cycle analysis; assay type: cell-based; conditions: 24 hours, result in words
Source text: FIG. 11 illustrates inhibition of CK1δ and CK1ε can induce an S/G2/M phase arrest.

SMILES | % Inhibition, Wee1 Degradation (K328M-Wee1-luciferase; 0.25 µM) [%] | EC50 (K328M-Wee1-luciferase) [nM] | IC50 (FLT3) | cell viability (HeLa cells [1]) | cell cycle arrest (HeLa cells [2]) | EC50 (K328M-Wee1-luciferase; HeLa cells) [nM] | stabilization of K328M-Wee1-luciferase (K328M-Wee1-luciferase; HeLa cells, result in words) | % Inhibition, Wee1 Degradation (K328M-Wee1-luciferase; at 250 nM, reported relative to SR-1277 = 100%) [%]
O=[N+]([O-])c1cccc2[nH]c(CNc3nc(N4CCOCC4)nc4c3ncn4-c3ccsc3)nc12 [SR-1277] | 100.0 | 40 | 305 nM | not affected | induced an S/G2/M arrest | – | – | –
c1ccc2[nH]c(CNc3nc(N4CCOCC4)nc4c3ncn4-c3ccsc3)nc2c1 [SR-653234] | – | – | 161 nM and 100 nM | without affecting cell viability; also recorded: not affected | induced an S/G2/M arrest | 624 | stabilizes Wee1-luciferase | 56.8
